In brackets after ≈: the same amount, converted by molar mass.
Key:
[1] = system: S. pneumonia RCMB 010010; experiment: Minimum inhibitory concentration, modified agar well diffusion; format: cell-based; settings: Streptococcus pneumoniae, RCMB010010, mean of three values, read-out: MIC (Mean ± SEM)
[2] = system: A. fumigatus RCMB 002568; experiment: Agar well diffusion, inhibition zone; format: cell-based, Aspergillus fumigatus; parameters: key to Mean diameter of inhibition zone (Mean ± SEM): –: -: No activity under the screening conditions; settings: mean of three values; for zone of inhibition at 1000 µg/mL: Aspergillus fumigatus, RCMB002568, 1 mg/mL, read-out: Mean diameter of inhibition zone (Mean ± SEM); for Mean diameter of inhibition zone (Mean ± SEM): 1 mg/mL
[3] = system: B. subtilis RCMB 010067; experiment: Minimum inhibitory concentration, modified agar well diffusion; format: cell-based; settings: Bacillus subtilis, RCMB010067, mean of three values, read-out: MIC (Mean ± SEM)
[4] = system: B. subtilis RCMB 010067; experiment: Agar well diffusion, inhibition zone; format: cell-based, Bacillus subtilis; settings: Bacillus subtilis, RCMB010067, 1 mg/mL, mean of three values, read-out: Mean diameter of inhibition zone (Mean ± SEM)
[5] = system: S. pneumonia RCMB 010010; experiment: Agar well diffusion, inhibition zone; format: cell-based, Streptococcus pneumoniae; settings: Streptococcus pneumoniae, RCMB010010, 1 mg/mL, mean of three values, read-out: Mean diameter of inhibition zone (Mean ± SEM)
[6] = system: P. aeruginosa RCMB 010043; experiment: Minimum inhibitory concentration, modified agar well diffusion; format: cell-based; settings: Pseudomonas aeruginosa, RCMB010043, mean of three values, read-out: MIC (Mean ± SEM)
[7] = system: human liver cancer cell line (HepG-2); experiment: MTT anticancer assay; format: cell-based; settings: HepG2, HePG-2 cancer liver cell line, mean of three values, read-out: IC50 (Mean ± SEM)
[8] = system: C. albicans RCMB 005036; experiment: Agar well diffusion, inhibition zone; format: cell-based, Candida albicans; parameters: key: –: -: No activity under the screening conditions; settings: 1 mg/mL, mean of three values
[9] = system: P. aeruginosa RCMB 010043; experiment: Agar well diffusion, inhibition zone; format: cell-based, Pseudomonas aeruginosa; settings: Pseudomonas aeruginosa, RCMB010043, 1 mg/mL, mean of three values, read-out: Mean diameter of inhibition zone (Mean ± SEM)
[10] = system: (THLE-2) normal liver cell line; experiment: Cytotoxic screening on normal liver cells; format: cell-based; settings: Homo sapiens, mean of three values, read-out: IC50 (Mean ± SEM)
[11] = system: E. coli RCMB 010052; experiment: Agar well diffusion, inhibition zone; format: cell-based, Escherichia coli; settings: Escherichia coli, RCMB010052, 1 mg/mL, mean of three values, read-out: Mean diameter of inhibition zone (Mean ± SEM)
[12] = system: A. fumigatus RCMB 002568; experiment: Minimum inhibitory concentration, modified agar well diffusion; format: cell-based; settings: Aspergillus fumigatus, RCMB002568, mean of three values, read-out: MIC (Mean ± SEM)
[13] = system: E. coli RCMB 010052; experiment: as above; format: cell-based; settings: Escherichia coli, RCMB010052, mean of three values, read-out: MIC (Mean ± SEM)

MIC [1]	MIC [3]	MIC [6]	IC50 [7]	melting point	MIC [12]	MIC [13]	SMILES	zone of inhibition at 1000 µg/mL [2]	zone of inhibition at 1000 µg/mL [4]	zone of inhibition at 1000 µg/mL [5]	Mean diameter of inhibition zone (Mean ± SEM) [8]	zone of inhibition at 1000 µg/mL [9]	IC50 [10]	zone of inhibition at 1000 µg/mL [11]	Mean diameter of inhibition zone (Mean ± SEM) [2]
3.9 ± 1.24 µg/mL (≈ 11.2 µM)	7.81 ± 1.16 µg/mL (≈ 22.4 µM)	15.6 ± 1.25 µg/mL (≈ 44.8 µM)	7.5 ± 0.84 µg/mL (≈ 21.5 µM)	320 °C	3.9 ± 0.39 µg/mL (≈ 11.2 µM)	1.95 ± 1.49 µg/mL (≈ 5.58 µM)	N#Cc1nnc2c(N=NN3C(=O)c4ccccc4C3=O)c(O)nn2c1N [Compound 16, 4-Amino-8-[(1,3-dioxo-1,3-dihydro-2H-isoindol-2-yl)diazenyl]-7-hydroxy-pyrazolo[5,1-c][1,2,4]triazine-3-carbonitrile]	22.9 ± 1.3 mm	18.8 ± 1.4 mm	22.8 ± 0.7 mm	–	18.1 ± 0.6 mm	820.58 ± 0.18 µg/mL (≈ 2350 µM)	23.7 ± 0.7 mm	
			16.7 ± 0.26 µg/mL (≈ 51.1 µM)	136 to 138 °C			CN(C)C=NC1=NNC(=O)C1=NNN1C(=O)c2ccccc2C1=O [Compound 10, N'-{4-[(1,3-dioxo-1,3-dihydro-2H-isoindol-2-yl)hydrazono]-5-oxo-4,5-dihydro-1H-pyrazol-3-yl}-N,N-dimethylimidoformamide]	12.1 ± 1.5 mm	11.3 ± 0.7 mm	14.2 ± 0.4 mm	–	12.3 ± 0.4 mm	688.29 ± 0.11 µg/mL (≈ 2100 µM)	22.6 ± 1.5 mm	
			4.63 ± 1.07 µg/mL (≈ 5.71 µM)				CC[C@]1(O)C[C@@H]2CN(CCc3c([nH]c4ccccc34)[C@@](C(=O)OC)(c3cc4c(cc3OC)N(C)[C@H]3[C@@](O)(C(=O)OC)[C@H](OC(C)=O)[C@]5(CC)C=CCN6CC[C@]43[C@@H]65)C2)C1 [Vinblastine, reference compound]						2146.1 ± 0.1 µg/mL (≈ 2650 µM)		
3.9 ± 0.01 µg/mL (≈ 9.87 µM)	3.9 ± 1.38 µg/mL (≈ 9.87 µM)	62.5 ± 0.71 µg/mL (≈ 158 µM)	9.92 ± 1.28 µg/mL (≈ 25.1 µM)	> 300 °C	15.6 ± 1.05 µg/mL (≈ 39.5 µM)	3.9 ± 1.24 µg/mL (≈ 9.87 µM)	CCOC(=O)c1nnc2c(N=NN3C(=O)c4ccccc4C3=O)c(O)nn2c1C [Compound 17, Ethyl 8-[(1,3-dioxo-1,3-dihydro-2H-isoindol-2-yl)diazenyl]-7-hydroxy-4-methyl-pyrazolo[5,1-c][1,2,4]triazine-3-carboxylate]	16.9 ± 1.2 mm	20.2 ± 1.2 mm	21.9 ± 1.2 mm	–	15.5 ± 1.2 mm	658.13 ± 0.25 µg/mL (≈ 1660 µM)	20.5 ± 1.3 mm	
			12.6 ± 0.13 µg/mL (≈ 44 µM)	128 to 129 °C			CCOC(=O)C(C#N)=NNN1C(=O)c2ccccc2C1=O [Compound 3, Ethyl 2-cyano-2-(2-(1,3-dioxoisoindolin-2-yl)hydrazono)acetate]		17.3 ± 0.6 mm	18.3 ± 0.7 mm	–	15.3 ± 0.7 mm	716.37 ± 0.1 µg/mL (≈ 2500 µM)	17.1 ± 0.5 mm	–
			23.6 ± 1.32 µg/mL (≈ 63.4 µM)	196 to 198 °C			O=C1c2ccccc2C(=O)N1N=Nc1c(O)nn2cc(-c3ccccc3)[nH]c12 [Compound 7, 2-((6-Hydroxy-2-phenyl-1H-imidazo[1,2-b]pyrazol-7-yl)diazenyl)isoindoline-1,3-dione]		21.5 ± 1.5 mm	12.7 ± 0.6 mm	–	16.9 ± 1.2 mm	662.58 ± 0.17 µg/mL (≈ 1780 µM)	11.9 ± 1.3 mm	–
